From patent US4772587A, “Dipeptide derivative of fatty acid” (Suntory Limited, priority 1985, dated 1988)
Residues, ends and D or L forms follow the SMILES beside them. *: point of attachment. Oleoyl = CCCCCCCC/C=C\CCCCCCCC(=O)*

Key:
[1] = Solubility in organic solvents; format: physicochemical
Text: All the compouds in Table 1 are oils which are soluble in CCl4, ether, CHCl3, CH2 Cl2, AcOEt and MeOH.

[2] = tested on: experimental amnesia caused in rats by scopolamine; experiment: Preventive effect against experimental amnesia caused in rats by scopolamine (passive avoidance learning); format: in vivo, Wister male rats; conditions: sample 25 μg/kg i.p.; scopolamine 3 mg/kg i.p. after learning
Description: Several of the anti-prolyl endopeptidase compounds of the present invention were checked for their ability to prevent the inhibition of long-term memory fixation by scopolamine. Solutions of physiological saline (0.3 ml) that contained selected compounds of the present inventions in varying amounts ([…], 0.25 mg, 0.1 mg, 0.025 mg and 0.010 mg/kg) were administered intraperitoneally once a day to Wister male rats (100-120 g). One hour after the administration, electric shocks (1.7 mA) were applied to the rats so that they would acquire passive avoidance learning. Immediately thereafter, scopolamine was administered intraperitoneally to each rat in an amount of 3 mg per kg of body weight.
The result of the test was assessed both 24 hours and 48 hours after the administration of scopolamine. The number of amnesic rats and of sound rats was counted for each of the control group (rats to which the test compounds had not been administered but to which only scopolamine and physiological saline had been administered intraperitoneally and the treated group (rats to which both the test compound and scopolamine had been administered). The results are shown in Table 3.

[3] = tested on: experimental amnesia caused in rats by scopolamine; experiment: as above; format: in vivo, Wister male rats; conditions: administered orally (so in the source) in an amount of 0.025 mg/kg
[4] = target: prolyl endopeptidase (Elizabethkingia meningoseptica, UniProt P27028); experiment: Measurement of anti-prolyl endopeptidase activity (decomposition of Z-glycyl-proline-β-naphthylamide); format: biochemical; conditions: substrate Z-glycyl-proline-β-naphthylamide, phosphate buffer pH 7.0
Description: The method of Yoshimoto and Tsuru (T. Yoshimoto and D. Tsuru, Agr. Biol. Chem. 42, 2417, 1978) was used to measure the anti-prolyl endopeptidase activities of several compounds of the present invention. A mixture of 0.0025M Z-glycyl-proline-β-naphthylamide (0.25 ml), 0.1M phosphate buffer (pH, 7.0; 0.99 ml) and a solution of a particular anti-prolyl endopeptidase compound (0.01 ml) was incubated in a test tube at 37° C. for 3 minutes. Thereafter, 0.1 ml of a solution of prolyl endopeptidase (0.2 U/ml) was added and the mixture was heated at 35° C. for 10 minutes. After the reaction, 2.0 ml of Triton X-100 in 1M acetate buffer (pH, 4.0) was added to the reaction mixture until the final concentration of the surfactant was 10%. The mixture was left at room temperature for 15 minutes and the absorbance (a) at 410 nm was measured.
A sample for blind test was prepared by using the buffer instead of the anti-prolyl endopeptidase compound and its absorbance (b) was also measured. The percent inhibition of prolyl endopeptidase was calculated by the formula: ((b-a)/b)×100, and the amount of a specific compound to achieve 50% inhibition (IC50) was determined.

[5] = tested on: ddY strain male mice; experiment: Anti-hypoxia action (survival time in desiccator evacuated to 180 mmHg); format: in vivo; conditions: for No. of survival/used (Drug): 30 minutes before evacuation to 180 mmHg
Description: The compounds of the present invention were checked for their anti-hypoxia action in ddY strain male mice (body weight: 25-34 g). Each of the treated groups consisted of 7 to 10 mice. Test samples were prepared by adding 2 to 3 drops of Tween 80® to physiological saline and suspending the respective compounds in the saline. The so conditioned test samples were administered (0.1 m 10 g) to each of the mice used.
At 30 minutes after the administration, each of the mice was placed in a desiccator having a volume of 1 l, and the desiccator was evacuated to 180 mmHg using a vacuum pump. The period of time from the start of the evacuation until the arrest of breathing was defined as Survival Time (minute).
When a mouse survived for 15 minutes or more, the survival time was recorded as being 15 minutes. Student's t-test was employed for significance analysis.

Sequence of prolyl endopeptidase (P27028 21-705): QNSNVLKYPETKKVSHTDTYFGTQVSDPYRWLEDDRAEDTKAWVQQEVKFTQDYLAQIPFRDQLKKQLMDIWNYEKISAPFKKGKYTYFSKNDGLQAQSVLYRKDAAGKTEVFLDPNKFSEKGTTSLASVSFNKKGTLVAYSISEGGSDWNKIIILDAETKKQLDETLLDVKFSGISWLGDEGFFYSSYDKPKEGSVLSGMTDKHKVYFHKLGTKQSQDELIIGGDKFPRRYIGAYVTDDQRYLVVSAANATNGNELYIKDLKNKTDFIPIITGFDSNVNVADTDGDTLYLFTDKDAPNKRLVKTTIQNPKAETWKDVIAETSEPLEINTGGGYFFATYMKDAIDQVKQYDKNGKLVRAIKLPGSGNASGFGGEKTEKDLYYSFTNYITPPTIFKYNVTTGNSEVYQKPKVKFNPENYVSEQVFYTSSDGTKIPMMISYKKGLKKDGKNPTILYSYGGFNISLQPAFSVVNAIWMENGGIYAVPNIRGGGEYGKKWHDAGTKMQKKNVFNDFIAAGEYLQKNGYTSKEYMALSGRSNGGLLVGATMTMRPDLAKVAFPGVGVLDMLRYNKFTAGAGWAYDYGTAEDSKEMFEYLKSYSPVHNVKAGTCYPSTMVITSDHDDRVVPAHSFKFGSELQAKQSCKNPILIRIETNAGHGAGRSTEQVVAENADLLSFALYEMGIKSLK

SMILES	solubility in benzene [1]	Avoidance time 24 hrs. later [2] [s]	Avoidance time 48 hrs. later [2] [s]	No. of amnesic rats/No. of rats tested [2]	Percentage amnesia [2] [%]	anti-amnesic action (in words) [3]	IC50 (amount of compound to achieve 50% inhibition) [4] [ng/test tube]	Survival time Ratio (Drug/Control) ([5]; 1 mg/kg i.p.)	No. of survival/used (Drug) ([5]; 1 mg/kg i.p.)	Survival time (Mean ± S.E.), Drug ([5]; 1 mg/kg i.p., p < 0.05 vs control) [mini]	Survival time Ratio (Drug/Control) ([5]; 10 mg/kg i.p.)	No. of survival/used (Drug) ([5]; 10 mg/kg i.p.)	Survival time (Mean ± S.E.), Drug ([5]; 10 mg/kg i.p., p < 0.1 vs control) [mini]
CCCCCCCC/C=C\CCCCCCCC(=O)NC(Cc1ccccc1)C(=O)N1CCCC1C(=O)OC (stereo not drawn) [SUAM 1194, oleoyl-Phe-Pro-OMe] (Oleoyl-Phe-Pro-OMe; configuration not given here)	soluble in benzene	–	–	–	–	–	–	–	–	–	–	–	–
CCCCCCCC/C=C\CCCCCCCC(=O)N[C@@H](Cc1ccccc1)C(=O)N1CCC[C@H]1C=O [SUAM 1212, oleoyl-Phe-Pro-CHO] (Oleoyl-Phe-Pro-aldehyde)	–	300	285	0/10	0	strong anti-amnesic action	0.4	1.27	0/7	2.94 ± 0.27	1.28	0/7	2.89
